From US12447153B2, “HER2 mutation inhibitors” (Array BioPharma Inc., priority 2021, dated 2025)

Tests used:
ErbB2 WT = ErbB2 WT (Homo sapiens (Human), UniProt P04626); assay: ErbB Enzyme Assay (HTRF KinEASE-TK), Assay 2; format: biochemical
EGFR = EGFR (Homo sapiens (Human), UniProt P00533); assay: ErbB Enzyme Assay (HTRF KinEASE-TK), Assay 3; format: biochemical
[1] = molecular target: ErbB2 with Exon 20 YVMA insertion (HER2-YVMA) (Homo sapiens (Human), UniProt P04626, INS775YVMA); assay: Cellular Phosphorylation Assay, Assay 4 (constitutive ErbB2 phosphorylation, NIH 3T3 cells); format: cell-based
EGFR wild type (EGFR WT) = EGFR wild type (EGFR WT) (Homo sapiens (Human), UniProt P00533); assay: Cellular Phosphorylation Assay, Assay 5 (EGF-stimulated EGFR phosphorylation, NIH 3T3 cells); format: cell-based
[2] = EGF-stimulated EGFR WT phosphorylation
[3] = cellular ErbB2 YVMA phosphorylation
[4] = cellular EGFR WT phosphorylation, EGF-stimulated

Chain of ErbB2 WT (P04626 23-1255): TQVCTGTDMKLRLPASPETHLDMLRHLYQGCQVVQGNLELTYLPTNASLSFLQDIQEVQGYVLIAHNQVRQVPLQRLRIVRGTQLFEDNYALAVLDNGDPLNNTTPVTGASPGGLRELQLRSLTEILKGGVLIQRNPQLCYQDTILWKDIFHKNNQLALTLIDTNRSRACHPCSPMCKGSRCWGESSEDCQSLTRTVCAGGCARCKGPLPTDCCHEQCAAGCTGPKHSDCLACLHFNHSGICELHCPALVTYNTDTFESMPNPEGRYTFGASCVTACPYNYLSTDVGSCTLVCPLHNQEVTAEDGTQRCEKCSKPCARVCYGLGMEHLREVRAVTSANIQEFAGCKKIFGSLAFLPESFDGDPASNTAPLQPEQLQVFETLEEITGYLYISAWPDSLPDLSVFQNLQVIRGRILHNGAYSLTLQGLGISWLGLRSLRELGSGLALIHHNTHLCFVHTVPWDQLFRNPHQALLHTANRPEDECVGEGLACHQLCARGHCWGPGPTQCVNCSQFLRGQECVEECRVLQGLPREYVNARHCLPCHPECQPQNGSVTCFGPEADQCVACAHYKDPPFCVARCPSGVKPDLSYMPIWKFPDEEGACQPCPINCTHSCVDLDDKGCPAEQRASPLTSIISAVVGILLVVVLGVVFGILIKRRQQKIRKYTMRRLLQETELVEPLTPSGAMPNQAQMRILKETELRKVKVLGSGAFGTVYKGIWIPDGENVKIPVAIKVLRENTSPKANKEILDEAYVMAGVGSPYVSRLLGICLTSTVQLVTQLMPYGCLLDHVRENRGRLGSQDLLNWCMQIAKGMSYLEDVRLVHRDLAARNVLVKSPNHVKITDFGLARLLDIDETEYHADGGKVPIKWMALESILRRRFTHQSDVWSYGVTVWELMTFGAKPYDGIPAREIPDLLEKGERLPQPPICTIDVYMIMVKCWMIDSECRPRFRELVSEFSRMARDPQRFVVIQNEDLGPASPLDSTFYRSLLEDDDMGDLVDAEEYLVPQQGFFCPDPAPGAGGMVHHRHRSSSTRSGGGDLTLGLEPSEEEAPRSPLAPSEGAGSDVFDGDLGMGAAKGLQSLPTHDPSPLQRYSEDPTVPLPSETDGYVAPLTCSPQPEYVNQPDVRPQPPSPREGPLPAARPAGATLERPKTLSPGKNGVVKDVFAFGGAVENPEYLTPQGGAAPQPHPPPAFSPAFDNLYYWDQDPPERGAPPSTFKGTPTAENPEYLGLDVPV
Chain of ErbB2 with Exon 20 YVMA insertion (HER2-YVMA) (P04626 other isoform, or with tags, fused parts or gaps ins YVMA behind 775): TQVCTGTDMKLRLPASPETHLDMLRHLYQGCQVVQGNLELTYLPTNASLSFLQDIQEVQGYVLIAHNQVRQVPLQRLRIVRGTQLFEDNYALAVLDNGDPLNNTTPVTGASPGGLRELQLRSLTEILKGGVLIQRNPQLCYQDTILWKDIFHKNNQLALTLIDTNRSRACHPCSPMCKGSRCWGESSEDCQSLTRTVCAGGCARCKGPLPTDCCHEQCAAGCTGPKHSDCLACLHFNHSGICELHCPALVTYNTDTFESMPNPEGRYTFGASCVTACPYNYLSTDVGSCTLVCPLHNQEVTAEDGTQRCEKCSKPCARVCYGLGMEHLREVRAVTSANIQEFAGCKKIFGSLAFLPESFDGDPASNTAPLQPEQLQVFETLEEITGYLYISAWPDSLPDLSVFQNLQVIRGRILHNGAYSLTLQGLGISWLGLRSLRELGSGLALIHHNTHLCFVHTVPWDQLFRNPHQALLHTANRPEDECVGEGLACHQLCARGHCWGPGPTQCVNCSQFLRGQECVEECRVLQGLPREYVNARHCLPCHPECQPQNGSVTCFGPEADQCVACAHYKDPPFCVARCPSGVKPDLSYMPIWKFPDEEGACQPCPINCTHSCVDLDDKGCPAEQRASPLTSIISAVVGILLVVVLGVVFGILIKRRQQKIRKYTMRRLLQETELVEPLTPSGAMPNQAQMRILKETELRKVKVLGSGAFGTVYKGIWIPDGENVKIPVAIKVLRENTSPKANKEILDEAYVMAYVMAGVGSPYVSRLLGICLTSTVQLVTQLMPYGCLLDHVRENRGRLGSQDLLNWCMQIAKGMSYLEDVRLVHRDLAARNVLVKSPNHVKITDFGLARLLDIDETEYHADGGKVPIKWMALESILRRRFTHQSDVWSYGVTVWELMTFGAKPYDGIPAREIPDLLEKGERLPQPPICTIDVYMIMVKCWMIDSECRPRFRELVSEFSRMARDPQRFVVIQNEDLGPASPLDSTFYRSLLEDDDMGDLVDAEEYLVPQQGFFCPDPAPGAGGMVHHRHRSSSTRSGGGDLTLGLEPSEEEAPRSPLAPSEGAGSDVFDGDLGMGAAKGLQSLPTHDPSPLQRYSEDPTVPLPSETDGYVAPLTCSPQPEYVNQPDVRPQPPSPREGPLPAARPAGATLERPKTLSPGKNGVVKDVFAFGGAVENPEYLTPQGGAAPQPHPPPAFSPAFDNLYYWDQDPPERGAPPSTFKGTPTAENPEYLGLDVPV
Chain of EGFR wild type (EGFR WT) (P00533 25-1210): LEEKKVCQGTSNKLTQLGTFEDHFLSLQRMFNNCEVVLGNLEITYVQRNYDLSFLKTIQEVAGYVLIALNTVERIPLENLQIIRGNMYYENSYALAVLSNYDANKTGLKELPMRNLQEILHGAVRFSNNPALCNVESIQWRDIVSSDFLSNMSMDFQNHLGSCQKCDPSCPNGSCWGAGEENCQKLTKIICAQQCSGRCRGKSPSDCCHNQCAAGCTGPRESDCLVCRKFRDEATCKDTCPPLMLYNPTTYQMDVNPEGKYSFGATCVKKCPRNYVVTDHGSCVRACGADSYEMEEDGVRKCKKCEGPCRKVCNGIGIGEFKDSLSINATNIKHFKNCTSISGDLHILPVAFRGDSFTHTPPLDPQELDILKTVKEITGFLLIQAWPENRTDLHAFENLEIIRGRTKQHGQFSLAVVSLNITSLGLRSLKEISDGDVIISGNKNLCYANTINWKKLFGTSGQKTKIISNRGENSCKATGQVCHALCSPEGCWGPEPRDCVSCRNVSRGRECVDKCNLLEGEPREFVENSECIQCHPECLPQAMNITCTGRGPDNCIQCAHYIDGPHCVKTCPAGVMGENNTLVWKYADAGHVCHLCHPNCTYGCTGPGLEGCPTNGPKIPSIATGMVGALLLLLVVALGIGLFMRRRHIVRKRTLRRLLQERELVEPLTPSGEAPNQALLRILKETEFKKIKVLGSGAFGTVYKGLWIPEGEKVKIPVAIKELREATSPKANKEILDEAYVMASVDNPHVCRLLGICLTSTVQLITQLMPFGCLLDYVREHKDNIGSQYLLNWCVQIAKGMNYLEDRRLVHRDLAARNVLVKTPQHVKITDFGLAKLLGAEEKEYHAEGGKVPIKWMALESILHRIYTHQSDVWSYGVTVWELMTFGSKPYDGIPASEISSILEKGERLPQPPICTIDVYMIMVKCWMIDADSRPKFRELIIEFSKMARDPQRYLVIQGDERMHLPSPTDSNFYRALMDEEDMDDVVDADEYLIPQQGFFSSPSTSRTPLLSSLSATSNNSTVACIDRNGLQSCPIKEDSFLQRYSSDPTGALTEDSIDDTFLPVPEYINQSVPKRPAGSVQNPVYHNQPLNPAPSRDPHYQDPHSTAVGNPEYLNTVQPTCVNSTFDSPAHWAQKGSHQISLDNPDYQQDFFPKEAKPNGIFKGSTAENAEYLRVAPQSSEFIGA
Chain of EGFR (P00533 25-1210): as above

Compound | IC50 (ErbB2 WT; ErbB2 WT enzyme) [nM] | IC50 (EGFR; EGFR enzyme) [nM] | IC50 ([1]; ErbB2 YVMA phosphorylation) [nM] | IC50 (EGFR wild type (EGFR WT); [2]) [nM] | IC50 (ErbB2 WT; ErbB2 WT enzyme assay) [nM] | IC50 (EGFR; EGFR enzyme assay) [nM] | IC50 [1, 3] [nM] | IC50 (EGFR wild type (EGFR WT); [4]) [nM]
C=CC(=O)N1CCC(Oc2nc3c(Nc4ccc(Oc5ccn6ncnc6c5)c(C)c4F)ncnc3cc2OC)CC1 [Example 40, 1-(4-((4-((4-([1,2,4]triazolo[1,5-a]pyridin-7-yloxy)-2-fluoro-3-methylphenyl)amino)-7-methoxypyrido[3,2-d]pyrimidin-6-yl)oxy)piperidin-1-yl)prop-2-en-1-one] | 11.3 | 300 | 7.8 | 111 |  |  |  | 
C=CC(=O)N1CC[C@@H]2C[C@H]1CN2c1ccc2ncnc(Nc3cc(C)c(Oc4ccc5c(c4)ncn5C)cc3F)c2n1 [Example 66, 1-((1S,5R)-6-(4-((2-fluoro-5-methyl-4-((1-methyl-1H-benzo[d]imidazol-5-yl)oxy)phenyl)amino)pyrido[3,2-d]pyrimidin-6-yl)-2,6-diazabicyclo[3.2.1]octan-2-yl)prop-2-en-1-one] | 6.8 | 84.5 | 6.1 | 153 |  |  |  | 
C=CC(=O)N1CCCC(c2ccc3ncnc(Nc4ccc(Oc5ccn6ncnc6c5)c(C)c4F)c3n2)C1 (centres unmarked) [Example 198, 1-(3-(4-((4-([1,2,4]triazolo[1,5-a]pyridin-7-yloxy)-2-fluoro-3-methylphenyl)amino)pyrido[3,2-d]pyrimidin-6-yl)piperidin-1-yl)prop-2-en-1-one] | 24.2 | 342 | 17 | 809 |  |  |  | 
C=CC(=O)N1CC2CC(C1)N2c1ccc2ncnc(Nc3cc(C)c(Oc4ccn5ncnc5c4)cc3F)c2n1 [Example 336] |  |  |  |  | 203 | 5700 | 50.5 | 4880
C=CC(=O)N1C[C@@H]2CC[C@H]1CN2c1ccc2ncnc(Nc3ccc(Oc4ccn5ncnc5c4)c(C)c3F)c2n1 [Example 331] |  |  |  |  | 4.7 | 48.8 | 3.2 | 79
C=CC(=O)N1CCN(c2ccc3ncnc(Nc4cc(Cl)c(Oc5ccc6c(c5)ncn6C)cc4F)c3n2)CC1(C)C [Example 76, 1-(4-(4-((5-chloro-2-fluoro-4-((1-methyl-1H-benzo[d]imidazol-5-yl)oxy)phenyl)amino)pyrido[3,2-d]pyrimidin-6-yl)-2,2-dimethylpiperazin-1-yl)prop-2-en-1-one] | 33.4 | ≥ 10000 | 17.1 | ≥ 5000 |  |  |  | 
CC#CC(=O)N1C2CCC1CN(c1ccc3ncnc(Nc4ccc(Oc5ccn6ncnc6c5)c(C)c4F)c3n1)C2 [Example 240, 1-(3-(4-((4-([1,2,4]triazolo[1,5-a]pyridin-7-yloxy)-2-fluoro-3-methylphenyl)amino)pyrido[3,2-d]pyrimidin-6-yl)-3,8-diazabicyclo[3.2.1]octan-8-yl)but-2-yn-1-one] | 143 | 4900 | 92.4 | 2020 |  |  |  | 
CC#CC(=O)N1CCN(c2ccc3ncnc(Nc4ccc(Oc5ccn6ncnc6c5)c(C)c4F)c3n2)CC1(C)C [Example 179, 1-(4-(4-((4-([1,2,4]triazolo[1,5-a]pyridin-7-yloxy)-2-fluoro-3-methylphenyl)amino)pyrido[3,2-d]pyrimidin-6-yl)-2,2-dimethylpiperazin-1-yl)but-2-yn-1-one] | 74 | 7630 | 103 | ≥ 5000 |  |  |  | 
C=CC(=O)N1CC2CCC(C1)N2c1ccc2ncnc(Nc3ccc(Oc4cnc5c(c4)ncn5C)c(C)c3F)c2n1 [Example 244, 1-(8-(4-((2-fluoro-3-methyl-4-((3-methyl-3H-imidazo[4,5-b]pyridin-6-yl)oxy)phenyl)amino)pyrido[3,2-d]pyrimidin-6-yl)-3,8-diazabicyclo[3.2.1]octan-3-yl)prop-2-en-1-one] | 46.4 | 178 | 16.7 | 317 |  |  |  | 
C=CC(=O)N1CC(Cc2ccc3ncnc(Nc4ccc(Oc5ccn6ncnc6c5)c(C)c4F)c3n2)C1 [Example 298] |  |  |  |  | 36.5 | 255 | 29.9 | 902
C=CC(=O)N1CC[C@H](c2ccc3ncnc(Nc4cc(C)c(Oc5ccc6c(c5)ncn6C)cc4F)c3n2)CC(C)(C)C1 (racemic) [Example 139, rac-(R)-1-(5-(4-((2-fluoro-5-methyl-4-((1-methyl-1H-benzo[d]imidazol-5-yl)oxy)phenyl)amino)pyrido[3,2-d]pyrimidin-6-yl)-3,3-dimethylazepan-1-yl)prop-2-en-1-one] | ≥ 10000 | ≥ 10000 | 32.5 | ≥ 5000 |  |  |  | 
C=CC(=O)N1C[C@H](c2ccc3ncnc(Nc4ccc(Oc5ccn6ncnc6c5)c(C)c4F)c3n2)CC1(C)C (racemic) [Example 296] |  |  |  |  | 58.5 | 881 | 36.1 | 1440
C=CC(=O)N1C[C@@H]2C[C@H]1CN2c1ccc2ncnc(Nc3ccc(Oc4ccn5ncnc5c4)c(Cl)c3F)c2n1 [Example 93, 1-((1S,4S)-5-(4-((4-([1,2,4]triazolo[1,5-a]pyridin-7-yloxy)-3-chloro-2-fluorophenyl)amino)pyrido[3,2-d]pyrimidin-6-yl)-2,5-diazabicyclo[2.2.1]heptan-2-yl)prop-2-en-1-one] | 12.6 | 137 | 3.7 | 53.5 |  |  |  | 
C=CC(=O)N1CCN(c2ccc3ncnc(Nc4ccc(Oc5ccn6ncnc6c5)c(C)c4F)c3n2)C[C@@H]1C [Example 88, (S)-1-(4-(4-((4-([1,2,4]triazolo[1,5-a]pyridin-7-yloxy)-2-fluoro-3-methylphenyl)amino)pyrido[3,2-d]pyrimidin-6-yl)-2-methylpiperazin-1-yl)prop-2-en-1-one] | 81.3 | 2950 | 17.8 | 1850 |  |  |  | 
C=CC(=O)N1[C@@H](C)CN(c2ccc3ncnc(Nc4cc(C)c(Oc5ccc6c(c5)ncn6C)cc4F)c3n2)C[C@@H]1C [Example 257] |  |  |  |  | 54.2 | ≥ 10000 | 115 | ≥ 5000
C=CC(=O)N1CCN(c2ccc3ncnc(Nc4ccc(Oc5ccn6ncnc6c5)c(Cl)c4F)c3n2)CC1(C)C [Example 87, 1-(4-(4-((4-([1,2,4]triazolo[1,5-a]pyridin-7-yloxy)-3-chloro-2-fluorophenyl)amino)pyrido[3,2-d]pyrimidin-6-yl)-2,2-dimethylpiperazin-1-yl)prop-2-en-1-one] | 7.5 | 463 | 8.8 | 178 |  |  |  | 

Results, then the compound that gave them:

IC50 (ErbB2 WT; ErbB2 WT enzyme) [nM] | IC50 (EGFR; EGFR enzyme) [nM] | IC50 ([1]; ErbB2 YVMA phosphorylation) [nM] | IC50 (EGFR wild type (EGFR WT); [2]) [nM] | IC50 (ErbB2 WT; ErbB2 WT enzyme assay) [nM] | IC50 (EGFR; EGFR enzyme assay) [nM] | IC50 [1, 3] [nM] | IC50 (EGFR wild type (EGFR WT); [4]) [nM] | Compound
 |  |  |  | 33.5 | 2110 | 36 | 4490 | C=CC(=O)N1CCCCC(c2ccc3ncnc(Nc4cc(C)c(Oc5ccn6ncnc6c5)cc4F)c3n2)C1 (centres unmarked) [Example 376]
 |  |  |  | 13 | 187 | 16.3 | 426 | C=CC(=O)N1CCCCC(c2ccc3ncnc(Nc4ccc(Oc5ccn6ncnc6c5)c(C)c4F)c3n2)C1 (centres unmarked) [Example 377]
 |  |  |  | 55 | 3440 | 82.4 | ≥ 5000 | C=CC(=O)N1C[C@H]2C[C@@H]1[C@H](c1ccc3ncnc(Nc4cc(C)c(Oc5ccn6ncnc6c5)cc4F)c3n1)C2 [Example 371]
 |  |  |  | 15.4 | 736 | 74 | ≥ 5000 | C=CC(=O)N1C[C@H]2CC[C@@H]1[C@@H](c1ccc3ncnc(Nc4ccc(Oc5ccn6ncnc6c5)c(C)c4F)c3n1)C2 [Example 398]
 |  |  |  | 12.1 | 414 | 8.2 | 348 | C=CC(=O)N1CCN(c2ccc3ncnc(Nc4ccc(Oc5ccn6ncnc6c5)c(Cl)c4F)c3n2)C[C@@H]1COC [Example 348]
 |  |  |  | 44.6 | 841 | 9.4 | 372 | C=CC(=O)N1CCC12CN(c1ccc3ncnc(Nc4cc(Cl)c(Oc5ccn6ncnc6c5)cc4F)c3n1)C2 [Example 343]
 |  |  |  | 308 | ≥ 10000 | 38.2 | ≥ 5000 | C=CC(=O)N1CCN(c2ccc3ncnc(Nc4cc(Cl)c(Oc5cnc6c(c5)ncn6C)cc4F)c3n2)C[C@H]1C1CC1 [Example 430]
 |  |  |  | 16 | 3240 | 45.6 | ≥ 5000 | C=CC(=O)N1CCCC(c2ccc3ncnc(Nc4cc(Cl)c(Oc5ccn6ncnc6c5)cc4F)c3n2)CC1 (centres unmarked) [Example 400]
 |  |  |  | 147 | ≥ 10000 | 56.3 | ≥ 5000 | C=CC(=O)N1CCN(c2ccc3ncnc(Nc4cc(F)c(Oc5ccn6ncnc6c5)cc4F)c3n2)CC1(C)C [Example 453]
 |  |  |  | 68.1 | 5680 | 125 | ≥ 5000 | C=CC(=O)N1C[C@@H]2C[C@H]1CC[C@@H]2c1ccc2ncnc(Nc3cc(C)c(Oc4ccn5ncnc5c4)cc3F)c2n1 [Example 380]
 |  |  |  | 69.4 | ≥ 10000 | 96 | ≥ 5000 | C=CC(=O)N(C)[C@@H]1CCN(c2ccc3ncnc(Nc4cc(C)c(Oc5ccn6ncnc6c5)cc4F)c3n2)C1 [Example 350]
 |  |  |  | 91.9 | 7510 | 56.2 | ≥ 5000 | C=CC(=O)N1CCN(c2ccc3ncnc(Nc4cnc(Oc5ccn6ncnc6c5)c(C)c4)c3n2)CC1(C)C [Example 449]
 |  |  |  | 157 | 4010 | 51.7 | ≥ 5000 | C=CC(=O)N1C[C@H]2CC[C@@H]1C[C@@H]2c1ccc2ncnc(Nc3ccc(Oc4cnc5c(c4)ncn5C)c(C)c3F)c2n1 [Example 422]
